Measurements as given in patent US11657895B2, “Methods for identifying treatment targets based on multiomics data” (INSTITUTE FOR SYSTEMS BIOLOGY, priority 2016, dated 2023).

Legend:
U251 = assay: Proliferation in GBM-derived cell line U251; assay type: cell-based; settings: Homo sapiens, U-251
GBM cell lines = settings: 1.85 nM romidepsin, Sawa et al., 2004; cited from earlier work
[1] = Iwamoto et al., 2011; cited from earlier work
[2] = system: HA, T98G and U251 cell lines; assay: Proliferation screen across the HA, T98G and U251 cell lines; settings: for Signficant Effect on Proliferation (cell lines): oncogene inhibitor paired with miRNA mimic(s) targeting the same oncogene, cell lines listed
[3] = system: HA, T98G and U251 cell lines; assay: Apoptosis screen across the HA, T98G and U251 cell lines; assay type: cell-based, human; settings: oncogene inhibitor paired with miRNA mimic(s) targeting the same oncogene; cell lines listed

SMILES: C/C=C1\NC(=O)[C@H]2CSSCC/C=C/[C@H](CC(=O)N[C@H](C(C)C)C(=O)N2)OC(=O)[C@H](C(C)C)NC1=O [romidepsin, (1S,4S,7Z,10S,16E,21R)-7-ethylidene-4,21-diisopropyl-2-oxa-12,13-dithia-5,8,20,23-tetrazabicyclo[8.7.6]tricos-16-ene-3,6,9,19,22-pentone]
- IC50 (U251): 1.1 nM
- Effect in GBM cell lines (GBM cell lines): anti-proliferative and pro-apoptotic
- half-life in patients [1]: short half-life
- Rank of single-agent effects on proliferation and apoptosis [2]: strongest effects on proliferation and apoptosis in every cell line
- Signficant Effect on Proliferation (cell lines) [2]: HA, U251

SMILES: O=C(CCCCCCC(=O)Nc1ccccc1)NO [Vorinostat, N-Hydroxy-N′-phenyloctanediamide]
- Signficant Effect on Proliferation (cell lines) [2]: HA, U251

SMILES: CNC(=O)c1cc(Oc2ccc(NC(=O)Nc3ccc(Cl)c(C(F)(F)F)c3)cc2)ccn1 [Sorafenib, 4-[4-[[4-chloro-3-(trifluoromethyl)phenyl]carbamoylamino]phenoxy]-N-methyl-pyridine-2-carboxamide]
- Significant Effect on Apoptosis (cell lines) [3]: HA, 198G
